Drawing on patent US20250221966A1, “RXFP1 AGONISTS” (BRISTOL-MYERS SQUIBB COMPANY, priority 2021, published 2025), this text covers EC50 for 38 molecules.

This experiment has as its target T1, human RXFP1 (Homo sapiens, UniProt Q9HBX9).
T1 construct: expressed in transfected cells
T1 sequence (Q9HBX9 1-757): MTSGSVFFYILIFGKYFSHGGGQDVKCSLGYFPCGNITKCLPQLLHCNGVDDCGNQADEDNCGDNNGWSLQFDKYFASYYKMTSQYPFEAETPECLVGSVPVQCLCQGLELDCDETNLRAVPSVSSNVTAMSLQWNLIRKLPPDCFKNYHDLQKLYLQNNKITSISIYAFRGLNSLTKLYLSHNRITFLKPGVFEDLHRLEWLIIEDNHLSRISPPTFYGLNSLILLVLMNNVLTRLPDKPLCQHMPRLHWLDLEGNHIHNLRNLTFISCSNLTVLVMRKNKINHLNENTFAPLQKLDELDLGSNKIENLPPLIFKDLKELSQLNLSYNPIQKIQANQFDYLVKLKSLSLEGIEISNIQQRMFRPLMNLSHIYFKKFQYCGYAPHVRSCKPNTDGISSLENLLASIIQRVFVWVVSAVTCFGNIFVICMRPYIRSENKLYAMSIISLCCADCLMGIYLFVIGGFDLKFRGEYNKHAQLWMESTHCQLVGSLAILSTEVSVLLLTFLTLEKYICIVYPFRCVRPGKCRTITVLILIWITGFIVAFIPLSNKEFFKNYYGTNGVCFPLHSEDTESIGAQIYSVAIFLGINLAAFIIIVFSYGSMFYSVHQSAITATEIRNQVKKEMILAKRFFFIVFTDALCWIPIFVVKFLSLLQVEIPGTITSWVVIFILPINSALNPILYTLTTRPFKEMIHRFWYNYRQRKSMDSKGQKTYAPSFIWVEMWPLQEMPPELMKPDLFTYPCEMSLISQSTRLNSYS
Kind of experiment: RXFP1 cAMP assay (hRXFP1 HEK293 cAMP assay, HTRF). In kind it is cell-based. The note with it: HEK293 cells stably expressing human RXFP1, 30 min at room temperature, read-out: cAMP hRXFP1 HEK293 Assay EC50. The method in brief: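 In a stable human RXFP1 HEK293 line, compounds acted for 30 min at RT in buffer with 0.5 mM IBMX. HTRF then quantified cellular cAMP.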
For orientation: Cyclic AMP is a second messenger, typically raised through Gs and lowered through Gi signalling.

Consider `COc1ccc(C2=NOC3CC(CO)CC23)cc1C(=O)N[C@H]1[C@@H](C(=O)Nc2ccc(F)c(C(F)(F)F)c2)[C@H]2CC[C@@H]1/C2=C\CC1CC(F)(F)C1` (some centres unmarked) [compound 959], for which the half-maximal effective concentration (EC50) turned out to be 6.1 nM.
Take `COc1ccc(C2=NOC3COCC23)cc1C(=O)N[C@H]1[C@@H](C(=O)NCc2ccn(C)n2)[C@H]2CC[C@@H]1/C2=C\C1CC1` (some centres unmarked) [compound 722]: the concentration giving a half-maximal response (EC50) amounted to 4180 nM.
In the case of `COc1ccc(-c2cc(C(OC(=O)NC3COC3)C(F)(F)F)ccc2F)cc1C(=O)N[C@@H]1C2CCC(/C2=C/C2CC2)[C@@H]1C(=O)Nc1ccc(F)c(C(F)(F)F)c1` (some centres unmarked) [compound 218] it was 2 nM.
The result for `COc1ccc(-c2cc(C(C)CC(=O)O)ccc2F)cc1C(=O)N[C@H]1[C@@H](C(=O)Nc2ccc(F)c(C(F)(F)F)c2)[C@H]2CC[C@@H]1/C2=C\C1CC1` (some centres unmarked) [compound 887] reads 5.5 nM; that for `COc1ccc(C2=NOC3CC(CO)CC23)cc1C(=O)N[C@H]1[C@@H](C(=O)Nc2ccc(F)c(C(F)(F)F)c2)[C@H]2CC[C@@H]1/C2=C\c1ccncn1` (some centres unmarked) [compound 809], 4.6 nM; that for `COc1ccc(C2=NOC3CC(CO)CC23)cc1C(=O)N[C@H]1[C@@H](C(=O)Nc2ccc(F)c(C(F)(F)F)c2)[C@H]2CC[C@@H]1/C2=C\C1CCC1` (some centres unmarked) [compound 446], 0.6 nM.
The result for `COc1ccc(C2=NOC3COCC23)cc1C(=O)N[C@H]1[C@@H](C(=O)NC2CCC(C#N)C2)[C@H]2CC[C@@H]1/C2=C\C1CC1` (some centres unmarked) [Example 664] reads 367 nM; that for `COc1ccc(-c2cc(C(=O)O)ccc2F)cc1C(=O)N[C@@H]1C2CCC(/C2=C/C2CC2)[C@@H]1C(=O)NC(C)C` (some centres unmarked) [compound 300], 575 nM.
Take `COc1ccc(C2=NOC3CCCCCCC23)cc1C(=O)N[C@H]1[C@@H](C(=O)Nc2ccc(F)c(C(F)(F)F)c2)[C@H]2CC[C@@H]1/C2=C\C1CC1` (some centres unmarked) [compound 537]: the concentration giving a half-maximal response (EC50) was determined as 26 nM.
Consider `COc1ccc(C2=NOC3CC(C)(CO)CC23)cc1C(=O)N[C@H]1[C@@H](C(=O)Nc2ccc(F)c(C(F)(F)F)c2)[C@H]2CC[C@@H]1/C2=C\C1CCCC1` (some centres unmarked) [compound 749], for which the EC50 is 3.3 nM.
In the case of `COc1ccc(C2=NOC3CS(=O)(=O)CC23)cc1C(=O)N[C@@H]1C2CCC(/C2=C/C2CC2)[C@@H]1C(=O)Nc1ccc(F)c(C(F)(F)F)c1` (mixture of isomers) [Example 442, (1R,2S,3R,4R,Z)-7-(cyclopropylmethylene)-3-(5-(5,5-dioxido-3a,4,6,6a-tetrahydrothieno[3,4-d]isoxazol-3-yl)-2-methoxybenzamido)-N-(4-fluoro-3-(trifluoromethyl)phenyl)bicyclo[2.2.1]heptane-2-carboxamide] it was 25 nM; in that of `COc1ccc(-c2cc(C(F)(F)F)cnc2F)cc1C(=O)N[C@@H]1C2CCC(/C2=C/C2CC2)[C@@H]1C(=O)Nc1ccc(F)c(C(F)(F)F)c1` (some centres unmarked) [compound 282], 25 nM.
The result for `COc1ccc(-c2cc(C(OC(=O)N(C)C3CCC3)C(F)(F)F)ccc2F)cc1C(=O)N[C@@H]1C2CCC(/C2=C/C2CC2)[C@@H]1C(=O)Nc1ccc(F)c(C(F)(F)F)c1` (some centres unmarked) [compound 209] reads 1 nM; that for `O=C(N[C@H]1[C@@H](C(=O)NC23CC(F)(C2)C3)[C@H]2CC[C@@H]1/C2=C\C1CC1)c1cc(C2=NOC3CC(CO)CC23)cc(F)c1OCC1CC1` (some centres unmarked) [compound 763], 2.1 nM; that for `COc1ccc(C2=NOC(C(C)(C)O)C2)cc1C(=O)N[C@H]1[C@@H](C(=O)Nc2ccc(F)c(C(F)(F)F)c2)[C@H]2CC[C@@H]1/C2=C\C1CC1` (single isomer, unassigned) [compound 524], 21.9 nM.
The result for `COc1ccc(-c2cc(C3OC(=O)N(C)C3=O)ccc2F)cc1C(=O)N[C@@H]1C2CCC(/C2=C/C2CC2)[C@@H]1C(=O)Nc1ccc(F)c(C(F)(F)F)c1` (some centres unmarked) [compound 173] reads 7 nM; that for `COc1ccc(C2=NOC3COCC23)cc1C(=O)N[C@H]1[C@@H](C(=O)NC2Cc3ccccc3C2)[C@H]2CC[C@@H]1/C2=C\C1CC1` (some centres unmarked) [compound 610], 132 nM; that for `COc1ccc(-c2ccc(C(=O)N(C)C)cc2F)cc1C(=O)N[C@@H]1C2CCC(/C2=C/c2ccccc2)[C@@H]1C(=O)Nc1ccc(F)c(C(F)(F)F)c1` (some centres unmarked) [compound 195], 29 nM.
As for `COc1ccc(-c2cc(C(NC(=O)C3CCOCC3)C(=O)O)ccc2F)cc1C(=O)N[C@@H]1C2CCC(/C2=C/C(F)(F)F)[C@@H]1C(=O)Nc1ccc(F)c(C(F)(F)F)c1` (some centres unmarked) [compound 239], the concentration giving a half-maximal response (EC50) amounted to 1 nM.
In the case of `COc1ccc(-c2cc(C(NC(=O)C3CCOCC3)C(=O)O)ccc2F)cc1C(=O)N[C@H]1[C@@H](C(=O)Nc2ccc(F)c(C(F)(F)F)c2)[C@H]2CC[C@@H]1/C2=C\C1CC(F)(F)C1` (some centres unmarked) [compound 943] it was 1.7 nM; in that of `COc1ccc(C2=NOC3COCC23)cc1C(=O)N[C@H]1[C@@H](C(=O)NCCC(C)(C)C)[C@H]2CC[C@@H]1/C2=C\C1CC1` (some centres unmarked) [compound 612], 134 nM.
In the case of `COc1ccc(C2=NO[C@H]3C[C@H](CO)C[C@@H]23)cc1C(=O)N[C@H]1[C@@H](C(=O)Nc2ccc(F)c(C(F)(F)F)c2)[C@H]2CC[C@@H]1/C2=C\C1C[C@@H](F)[C@@H](F)C1` (some centres unmarked) [compound 828] it was 3.3 nM.
The result for `COc1ccc(C2=NOC3CS(=O)(=O)CC23)cc1C(=O)N[C@@H]1C2CCC(/C2=C/C2CC2)[C@@H]1C(=O)Nc1ccc(F)c(C(F)(F)F)c1` (single isomer, unassigned) [compound 444] reads 410 nM.
As for `COc1cc(F)c(F)cc1C(=O)N[C@@H]1C2CCC(/C2=C/c2cccc(C#N)c2)[C@@H]1C(=O)Nc1ccc(F)c(C(F)(F)F)c1` (some centres unmarked) [compound 59], the EC50 was found to be 890 nM.
For `CCOC(=O)c1ccnn1-c1ccc(OC)c(C(=O)N[C@@H]2C3CCC(/C3=C/C(F)(F)F)[C@@H]2C(=O)Nc2ccc(F)c(C(F)(F)F)c2)c1` (some centres unmarked) [compound 344], the EC50 was determined as 757 nM.
Regarding `COc1ccc(C2=NOC(CC(=O)O)C2)cc1C(=O)N[C@@H]1C2CCC(/C2=C/C2CC2)[C@@H]1C(=O)Nc1ccc(F)c(C(F)(F)F)c1` (single isomer, unassigned) [Example 390], the EC50 is 37 nM.
In the case of `COc1ccc(-c2cc(C(OC(=O)NC(C)(C)C)C(=O)O)ccc2F)cc1C(=O)N[C@H]1[C@@H](C(=O)Nc2ccc(F)c(C(F)(F)F)c2)[C@H]2CC[C@@H]1/C2=C\C1CCCC1` (some centres unmarked) [compound 933] it was 0.9 nM; in that of `COc1ccc(C2=NOC3CCCC23)cc1C(=O)N[C@H]1[C@@H](C(=O)Nc2ccc(F)c(C(F)(F)F)c2)[C@H]2CC[C@@H]1/C2=C\C1CC1` (single isomer, unassigned) [compound 662], 360 nM; in that of `COc1ccccc1NC(=O)OC(c1ccc(F)c(-c2ccc(OC)c(C(=O)N[C@@H]3C4CCC(/C4=C/C4CC4)[C@@H]3C(=O)Nc3ccc(F)c(C(F)(F)F)c3)c2)c1)C(F)(F)F` (some centres unmarked) [compound 225], 3 nM.
The result for `COc1ccc(C2=NOC3CC(C(C)O)CC23)cc1C(=O)N[C@H]1[C@@H](C(=O)Nc2ccc(F)c(C(F)(F)F)c2)[C@H]2CC[C@@H]1/C2=C\C1CC1` (some centres unmarked) [compound 855] reads 4.5 nM; that for `CCC=C1C2CCC1[C@H](C(=O)Nc1ccc(F)c(C(F)(F)F)c1)[C@@H]2NC(=O)c1cc(F)c(F)cc1OC` (some centres unmarked) [compound 47], 47 nM; that for `COc1ccc(-c2cnc3nn(CC(=O)O)cc3c2)cc1C(=O)N[C@@H]1C2CCC(/C2=C/C(F)(F)F)[C@@H]1C(=O)Nc1ccc(F)c(C(F)(F)F)c1` (some centres unmarked) [compound 318], 11 nM.
The result for `COc1ccc(N2CCC(NC(=O)C3CCOCC3)C2)cc1C(=O)N[C@@H]1C2CCC(/C2=C/C(F)(F)F)[C@@H]1C(=O)Nc1ccc(F)c(C(F)(F)F)c1` (single isomer, unassigned) [compound 336] reads 1930 nM.
`COc1ccc(-c2cccnc2F)cc1C(=O)N[C@H]1[C@@H](C(=O)Nc2ccc(F)c(C(F)(F)F)c2)[C@H]2CC[C@@H]1/C2=C\c1ccccc1` [compound 82]: the EC50 amounted to 41 nM.
Consider `COc1ccc(-c2cccn3c(C(=O)OCc4ccccc4)cnc23)cc1C(=O)N[C@@H]1C2CCC(/C2=C/C(F)(F)F)[C@@H]1C(=O)Nc1ccc(F)c(C(F)(F)F)c1` (some centres unmarked) [compound 315], for which the EC50 was found to be 60 nM.
In the case of `COc1ccc(C2=NO[C@H]3COC[C@@H]23)cc1C(=O)N[C@H]1[C@@H](C(=O)Nc2ccc(F)c(C(F)(F)F)c2)[C@H]2CC[C@@H]1/C2=C\C(C)C` [compound 827] it was 3.1 nM; in that of `COc1ccc(-c2cc(C3=NOC4COCC34)ccc2F)cc1C(=O)N[C@H]1[C@@H](C(=O)Nc2ccc(F)c(C(F)(F)F)c2)[C@H]2CC[C@@H]1/C2=C\C1CC1` (some centres unmarked) [compound 911], 7.6 nM.
The result for `COc1ccc(C2=NO[C@H]3CC(CO)C[C@@H]23)cc1C(=O)N[C@H]1[C@@H](C(=O)Nc2ccc(F)c(C(F)(F)F)c2)[C@H]2CC[C@@H]1/C2=C\CCC1CC1` (some centres unmarked) [compound 824] reads 2.9 nM.

By EC50 is commonly meant the concentration that produces a half-maximal response.
